Reference: patent publication US10092500B2, “Oral care compositions” (BASF SE, priority 2014, dated 2018)

Experiments:
S. mutans (ATCC#25175) = experiment: Inhibition of bacterial acid production (Bromo Cresol Purple broth, OD 588/427); format: cell-based; settings: for Inhibition of bacterial acid production, in words: change of OD 588 / OD 427 (pH indicator)
Method: Method to observe the acid production of S. mutans in a medium containing a pH indicator and glucose. Observe how xylitol and the example polymers affect acid production: A culture of S. mutans (ATCC#25175) is grown statically overnight in 10 mL liquid broth (BHI) at 37° C. […] The no treatment control has 20 μl water added. To each experimental well 180 of the inoculated BCP broth is added. To the no inoculum control 20 μl water and 20 μl filter sterilized overnight culture broth are added. […] Both wavelengths are measured every hour for several hours but before evaporation became an issue. The plates are shaken for 10 seconds before reading.

[1] = test system: Streptococcus mutans Biofilm; experiment: Substantivity: S. mutans biofilm growth on pre-treated, rinsed hydroxyapatite surfaces; format: cell-based, S. mutans (ATCC#25175); settings: 24 hr on pre-treated hydroxyapatite
Method: Method to evaluate the substantivity of polymers to hydroxy apatite surfaces and the effects these polymers have on the growth of Streptococcus mutans and Saliva derived biofilms: S. mutans (ATCC#25175) is inoculated into 10 mL BHI and incubated statically at 37° C. overnight. […] Hydroxy apatite coated peg lids are pellicle treated with sterile artificial saliva 200 μl/per well of a 96 well clear plate for 30 minutes at 37° C. aerobically. The peg lids are transferred to a clear 96 well plate containing 200 μl of the designated treatments below in Jordan's with 5% sucrose. […] After 30 mins of treatment the two pegs is transferred to a 96 well plate containing 200 μl of water and it is rinsed for 10 min at 500 rpm. […] After incubation the peg lids are transferred to a rinse plate containing 200 μl of water for 5 minutes and then transferred to white 96 well plate containing 200 μl Bac-titer-Glo, this is shaken for 5 minutes and read for luminescence.

[2] = test system: Multispecies saliva derived Biofilm; experiment: Substantivity: multispecies saliva derived biofilm growth on pre-treated, rinsed hydroxyapatite surfaces; format: cell-based, human saliva; settings: 24 hr on pre-treated hydroxyapatite
Method: The peg lids are transferred to a clear 96 well plate containing 200 μl of the designated treatments below in Jordan's with 5% sucrose. This peg/plate assembly is shaken for 5 mins and then incubated for 25 mins aerobically at 37 C. After 30 mins of treatment the two pegs is transferred to a 96 well plate containing 200 μl of water and it is rinsed for 10 min at 500 rpm. […] After incubation the peg lids are transferred to a rinse plate containing 200 μl of water for 5 minutes and then transferred to white 96 well plate containing 200 μl Bac-titer-Glo, this is shaken for 5 minutes and read for luminescence.

48 hour saliva biofilms = experiment: Disruption of established 48 hour saliva biofilms; format: cell-based, pooled human saliva; settings: treatment for 5 minutes; Active = 1000 ppm e-polylysine, Chelate = 0.1% Trilon Ca, Polymer = 1%; negative = increase over control
Method: Method to screen combinations of actives, example polymers and chelates to identify potential synergies for biofilm disruption: Polystyrene pegs are pellicle treated with fresh pooled human saliva for 30 minutes at 37° C. aerobically. […] The pegs are added to the growth media and incubated anaerobically 37° C. At 24 hr. the pegs are removed and transferred to a fresh plate containing 200 μl of sterile BHI. And incubated anaerobically for another 24 hr at 37° C. […] Following a 5 minute rinse at room temperature, the pegs are transferred to a treatment plate containing combinations of actives, chelate and polymers. This is followed a 5 minute treatment (shaking at 500 rpm). The treated pegs are transferred to a white 96 well plate containing 200 μl Bac-titer-Glo reagent—this is incubated at room temperature for 5 minutes (shaking) and read on a plate reader for luminescence.

[3] = test system: Streptococcus mutans biofilm; experiment: Prevention of S. mutans biofilm development on hydroxy apatite pegs (Bac-titer-Glo luminescence); format: cell-based; settings: Controls column; 2% xylitol; 24 hr growth; negative = increase over control
Method: To evaluate the multispecies saliva and S. mutans biofilm preventing activity of polymers and control combinations of condensants S. mutans 25175 is inoculated into 10 mL BHI and incubated statically at 37° C. overnight. […] Hydroxy apatite coated peg lids are pellicle treated with sterile artificial saliva 200 μl/per well of a 96 well clear plate for 30 minutes at 37° C. aerobic. […] Test solutions are added to a desired final concentration and water is added to bring the final volume to 200 μl.

[4] = test system: multispecies saliva biofilm; experiment: Prevention of multispecies saliva biofilm development on hydroxy apatite pegs (Bac-titer-Glo luminescence); format: cell-based, pooled human saliva; settings: Controls column; 2% xylitol; 24 hr growth
Method: To evaluate the multispecies saliva and S. mutans biofilm preventing activity of polymers and control combinations of condensants Hydroxy apatite (HA) coated surfaces of a 96 peg lid (Biosurface Technologies, Bozeman, Mont.) are pellicle treated with pooled human saliva 200 μl/per well of a 96 well clear plate for 30 minutes at 37° C. aerobically. Into each well of the growth plate, clear 96 well plate, 160 μl inoculated Brain Heart Infusion (BHI) broth is added. Test solutions are added to a desired final concentration and water is added to bring the final volume to 200 μl.

## N=C(N)NCCC[C@H](N)C(=O)O [Arginine, L-arginine]
S. mutans (ATCC#25175); 1% treatment, pH 6.3
  Mean Delta OD588 (stdev): 1.054 (0.13)
S. mutans (ATCC#25175)
  Inhibition of bacterial acid production, in words: no acid inhibiting effects
[1]; % treatment 0.070%
  % decrease in biofilm as compared to growth control (negative indicates increased biofilm): −40%
[1]; % treatment 0.140%
  % decrease in biofilm as compared to growth control (negative indicates increased biofilm): −18%
[1]; % treatment 0.280%
  % decrease in biofilm as compared to growth control (negative indicates increased biofilm): −59%
[1]; % treatment 0.560%
  % decrease in biofilm as compared to growth control (negative indicates increased biofilm): −53%
[1]; % treatment 1.120%
  % decrease in biofilm as compared to growth control (negative indicates increased biofilm): −29%
[2]; % treatment 0.070%
  % decrease in biofilm as compared to growth control (negative indicates increased biofilm): −28%
[2]; % treatment 0.140%
  % decrease in biofilm as compared to growth control (negative indicates increased biofilm): −20%
[2]; % treatment 0.280%
  % decrease in biofilm as compared to growth control (negative indicates increased biofilm): −24%
[2]; % treatment 0.560%
  % decrease in biofilm as compared to growth control (negative indicates increased biofilm): −22%
[2]; % treatment 1.120%
  % decrease in biofilm as compared to growth control (negative indicates increased biofilm): 49%

## CCCCCCCCCCCCCCCC[n+]1ccccc1 [Cetylpyridinium chloride]
[1]; % treatment 0.070%
  % decrease in biofilm as compared to growth control (negative indicates increased biofilm): 100%
[2]; % treatment 0.070%
  % decrease in biofilm as compared to growth control (negative indicates increased biofilm): 98%

## O=C(O)CN(CCN(CC(=O)O)CC(=O)O)CC(=O)O [EDTA, ethylenediaminetetraacetic acid]
S. mutans (ATCC#25175); 1% treatment, pH 7.0
  Mean Delta OD588 (stdev): 0.283 (0.086)
S. mutans (ATCC#25175)
  Inhibition of bacterial acid production, in words: no or little change demonstrating acid inhibiting effects

## O=C([O-])CN(CCN(CC(=O)[O-])CC(=O)[O-])CC(=O)[O-].[Ca+2].[Na+].[Na+] [Trilon Ca, Ca EDTA]
48 hour saliva biofilms
  Disruption of 48 hour saliva biofilms, reduction from the No Treatment control: −10%

## OC[C@@H](O)[C@H](O)[C@@H](O)CO [Xylitol, xylitol]
S. mutans (ATCC#25175); 0.1% treatment
  Mean Delta OD588 (stdev): 0.993 (0.099)
S. mutans (ATCC#25175); 0.5% treatment
  Mean Delta OD588 (stdev): 0.841 (0.119)
S. mutans (ATCC#25175); 1% treatment
  Mean Delta OD588 (stdev): 0.759 (0.081)
S. mutans (ATCC#25175); 2% treatment
  Mean Delta OD588 (stdev): 0.734 (0.131)
S. mutans (ATCC#25175)
  Inhibition of bacterial acid production, in words: acid inhibition at all concentrations tested
[1]; % treatment 1.120%
  % decrease in biofilm as compared to growth control (negative indicates increased biofilm): −11%
[1]; % treatment 2.000%
  % decrease in biofilm as compared to growth control (negative indicates increased biofilm): −15%
[3]
  Prevention of Streptococcus mutans biofilm development, reduction from the untreated control: −1%
[2]; % treatment 1.120%
  % decrease in biofilm as compared to growth control (negative indicates increased biofilm): 14%
[2]; % treatment 2.000%
  % decrease in biofilm as compared to growth control (negative indicates increased biofilm): 12%
[4]
  Prevention of multispecies saliva biofilm development, reduction from the untreated control: 17%

## O=C(O)CC(O)(CC(=O)O)C(=O)O [citric acid]
S. mutans (ATCC#25175); 1% treatment, pH 7.0
  Mean Delta OD588 (stdev): 0.196 (0.029)
S. mutans (ATCC#25175)
  Inhibition of bacterial acid production, in words: no or little change demonstrating acid inhibiting effects

## O=C(O)CCC(=O)O [succinic acid]
S. mutans (ATCC#25175); 1% treatment, pH 7.4
  Mean Delta OD588 (stdev): 0.323 (0.107)
S. mutans (ATCC#25175)
  Inhibition of bacterial acid production, in words: no or little change demonstrating acid inhibiting effects
